The data set is described as follows: gradient 5% acetonitrile 3 min, to 50% in 2 min, to 85% in 15 min, held 3 min, 100 µL/min. The conditions noted are these: column: Zorbax Extend-C18 2.1 x 50 mm; eluents: water / acetonitrile, 0.1% formic acid. Put shortly:
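Values are retention times taken from adduct peaks that software picked and an analyst inspected. The pure standards were run as mixtures of ~100 molecules on HPLC linked to a quadrupole time-of-flight mass spectrometer, in positive and negative ionization mode. A Zorbax Extend-C18 column (2.1 × 50 mm, 1.8 μm) was used at 100 μL/min with water and acetonitrile, each including 0.1% formic acid.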
Compound `CCOC(=O)CNC(=O)N1CCN(c2nc3ccccc3n3cccc23)CC1` had an RP-LC retention time of 556 s.
The same measure for `CCOc1ccccc1NC(=O)N1CCc2nc(-c3ccccc3)ncc2C1`: 1010 s.
The same measure for `O=c1n(CCOc2ccccc2)nc2ccc(S(=O)(=O)N3CCOCC3)cn12`: 792 s; for `CN(C)c1nc(Nc2ccc(F)cc2)c2cnn(C)c2n1`: 781 s.
Compound `CCCCCCCC1(C)NC(=O)NC1=O` (stereo not given) yielded an RP-LC retention time of 817 s.
The same measure for `COCCc1nnc(NC(=O)C2c3ccccc3Oc3ccccc32)o1`: 718 s; for `COc1cc(NC(=O)c2c(O)c3cccnc3n(-c3ccccc3)c2=O)cc(OC)c1`: 1250 s.
The result for `CCOc1ccccc1NS(=O)(=O)c1cc(-c2c(CC)noc2NC(C)=O)ccc1OC` reads 840 s; that for `CC(=O)c1ccc(N2CCN(C(=O)Cn3cccc3-c3nnc(C4CCC4)o3)CC2)cc1`, 824 s; that for `O=C(NCCCc1ccccc1)C1(CCO)CCN(c2ncccn2)C1` (stereo not given), 651 s.
`CCCS(=O)(=O)N1CCC(CCOC)(NC(=O)C2CC2)CC1` had an RP-LC retention time of 686 s.
The same measure for `CN(c1nccn2c(=O)n(CC(=O)Nc3ccc(F)cc3F)nc12)C1CCCCC1`: 902 s.
Compound `Cc1ccc(CNC(=O)C2(C)CCN(C(=O)Nc3ccccc3C(F)(F)F)CC2)cc1` had an RP-LC retention time of 927 s.
The same measure for `Cc1cc(-c2nnc(-c3ccco3)o2)c(C)n1CC(=O)NCc1ccc(F)c(Cl)c1`: 882 s; for `Cn1c(=O)c2cc(C(=O)Nc3ccc4c(c3)OCO4)cnc2n(-c2ccc(F)cc2)c1=O`: 850 s.
The same measure for `COc1ccc(-n2c(=O)c3sccc3n(Cc3nc(-c4ccc(OC(C)C)cc4)no3)c2=O)cc1`: 1060 s; for `COc1ccccc1NC(=O)C1CCN(S(C)(=O)=O)c2ccccc2O1` (stereo not given): 916 s; for `Cc1cc(C)c2c(N3CCCC3)nc(C(=O)NCc3ccc(C)o3)nc2n1`: 577 s.
The same measure for `Cc1ccc(CNC(=O)C2CCN(S(=O)(=O)c3cc(C(=O)N4CCOCC4)cs3)CC2)cc1`: 765 s; for `CCCn1nc(CNC(=O)c2ccc3c(c2)OCO3)c2ccccc21`: 843 s; for `CCCCOc1ccc(NC(=O)c2cc(=O)c3cc(Br)ccc3o2)c2cccnc12`: 811 s.
With `CCC1(O)CCC12CCN(C(=O)CC(C)C)CC2` (stereo not given), the RP-LC retention time came out at 744 s.
For the compound `CCCCN(CC)S(=O)(=O)c1ccc(C(=O)Nc2nc3c(s2)COc2ccccc2-3)cc1`, the RP-LC retention time was determined as 1230 s.
The same measure for `Cc1ccc2c(c1)N(S(C)(=O)=O)CCC(C(=O)Nc1cc(Cl)ccc1C)O2` (stereo not given): 919 s; for `CCN1C(=O)COc2cc(-c3noc(C(=O)NC4CCCCC4)n3)ccc21`: 996 s; for `Cc1cc2c(cc1S(=O)(=O)N(C)CC(=O)N1CCN(c3ccccn3)CC1)OC(C)C(=O)N2` (stereo not given): 587 s.
With `O=C(Nc1ccc(F)cc1Br)c1cnc(-c2ccccc2)nc1-c1ccncc1`, the RP-LC retention time was determined as 935 s.
The same measure for `CN(C)c1nc(Cl)nc2c1nc(Cl)n2C1CCCCO1` (stereo not given): 1130 s; for `COC(=O)c1ccc(Cl)cc1NC(=O)c1cc2ccccc2o1`: 1280 s.
As for `COc1ccc(CNC(=O)C2CCCN(c3nnc4ccc(Cl)cn34)C2)cc1OC` (stereo not given), the RP-LC retention time turned out to be 685 s.
The same measure for `COc1cccc(CCC(=O)NC2(c3nc(C)no3)CCCCC2)c1`: 856 s.
`Cc1nc(C)c(CCNS(=O)(=O)c2cc(C)c(C)cc2C)s1` returned an RP-LC retention time of 695 s.
For the compound `O=C(Nc1cccc(F)c1)C1CCN(C(=O)c2ncn3c2COC(c2ccccc2)C3)CC1` (stereo not given), the RP-LC retention time was determined as 921 s.
`Cc1cc2n(n1)CCC(=O)N2CCCC(=O)NCCCc1ccccc1`: the RP-LC retention time was determined as 691 s.
The same measure for `CCN(C(=O)Cn1nc(C(=O)N2CCCCC2)c2ccccc21)c1ccccc1`: 944 s.
The result for `CCCc1noc(-c2ccc3nnc(CC(=O)Nc4cc(C)cc(C)c4)n3c2)n1` reads 947 s.
The result for `O=C(c1ccc(N2CCCC2)nn1)N1CCN(c2ncccn2)CC1` reads 548 s.
Regarding `C=CCNC(=O)C1CCCN(C(=O)Nc2ccc(NC(=O)Nc3ccccc3)cc2)C1` (stereo not given), the RP-LC retention time is 707 s.
Consider `O=C(CCCc1ccccc1)N1CCN(c2nc(CN3CCOCC3)cs2)CC1`, for which the RP-LC retention time is 639 s.
The same measure for `COc1ccc(OC)c(Nc2c(-c3ccc(N(C)C)cc3)nc3cnccn23)c1`: 796 s; for `COc1ccccc1-c1noc(Cn2cnc3c(cnn3-c3ccc(C)cc3)c2=O)n1`: 1100 s; for `O=S(=O)(c1cccc2cccnc12)N1CCCn2nc(-c3cccnc3)cc2C1`: 624 s.
`Cc1ccc(NC(=O)CN2C(=O)CCc3cc(S(=O)(=O)N4CCCCC4C)ccc32)cc1N(C)C` (stereo not given) came in with an RP-LC retention time of 676 s.
The result for `O=C(c1ccc(N2CCN(c3ncccn3)CC2)nn1)N1CCc2ccccc21` reads 784 s; that for `Cc1cc(C)n2c(Nc3ccc(C(C)C)cc3)c(-c3cccc(Br)c3)nc2n1`, 1000 s; that for `CCc1ccc(C(O)CN2CCN(c3ccccc3)CC2)cc1` (stereo not given), 692 s.
Take `CCOc1ccccc1CNC(=O)Cc1cn(C)c2ncccc12`: the RP-LC retention time came out at 739 s.
Take `Cc1ccc(CNC(=O)c2cc3n(n2)CCCN(Cc2ccc(Cl)cc2)C3=O)o1`: the RP-LC retention time worked out at 655 s.
The result for `CC(=O)NCCc1csc(C2CCCN(C(=O)C3CCOC3)C2)n1` (stereo not given) reads 603 s; that for `Cc1cc(C)cc(Nc2c(-c3ccc(O)cc3)nc3ncccn23)c1`, 705 s.
The same measure for `O=C(NCC1CCOCC1)c1ccc2ccccc2n1`: 782 s; for `CCOCCCNC(=O)C1CCN(C2=NS(=O)(=O)C(c3ccc(CC)cc3)=C2C)CC1`: 810 s; for `COc1ccc(C(=O)Nc2nc(C)c3cc4c(cc3n2)OCO4)cc1`: 692 s.
The same measure for `O=C(NCCC1CCN(C(=O)Nc2cc(F)cc(F)c2)CC1)C1CCC1`: 810 s; for `Cc1oc2ccn(Cc3cccc(F)c3)c(=O)c2c1C(=O)NC1CCCC1`: 1060 s; for `COc1ccccc1-c1[nH]ncc1CN1CCC2(CC1)CC(O)CCO2` (stereo not given): 561 s.
In the case of `CCOc1ccc(-n2ccn3cc(-c4ccc(C)cc4C)nc3c2=O)cc1`, the RP-LC retention time is 942 s.
Regarding `O=C(NC1CCCCCC1)c1nnc(-c2ccc(S(=O)(=O)N3CCCC3)cc2)o1`, the RP-LC retention time came to 1010 s.
The result for `CCc1c(C2CCN(C(=O)C3COc4ccccc4O3)CC2)noc1N` (stereo not given) reads 684 s; that for `CC(C)C(=O)NCCc1csc(C2CCCN(C(=O)C(C)(C)C)C2)n1` (stereo not given), 734 s; that for `O=c1n(Cc2cc(F)cc(F)c2)nc2ccc(S(=O)(=O)N3CCOCC3)cn12`, 816 s.
The same measure for `CC(=O)Nc1cccc(N2CC(C(=O)NC3CCCCCCC3)CC2=O)c1` (stereo not given): 731 s; for `O=C(c1cc(Cl)ccc1F)N1CCc2nc(-c3ccc(Cl)cc3)ncc2C1`: 1150 s.
The same measure for `CCCN1CCN(C(=O)c2noc3c2CCCCC3)CC1`: 613 s; for `Cc1cc(C)cc(S(=O)(=O)N2CCc3c(c(-c4nnc(-c5ccc(F)cc5)o4)nn3C)C2)c1`: 812 s; for `Cc1sc2ncnc(N3CCCC(C)C3)c2c1C(=O)Nc1ccc(Br)cc1` (stereo not given): 1310 s.
Regarding `Cc1ccc(-n2c(N3CCCC(C(=O)NC(C)c4cccnc4)C3)nc3ccsc3c2=O)cc1` (stereo not given), the RP-LC retention time is 633 s.
The result for `O=C1CCCc2c1cc(C(=O)N1CCCCC1)c(=O)n2-c1ccc(F)cc1` reads 704 s; that for `Cc1ccc(-c2csc(NC(=O)Cc3csc(C)n3)n2)cc1`, 930 s.
The same measure for `O=C(NC1CCN(c2cc(-c3ccc(F)cc3)[nH]n2)C1)c1ccc(Cl)cc1` (stereo not given): 777 s.
`CC(C)n1cnc2cc(CNC(=O)c3ccc(C#N)cc3)ccc21` came in with an RP-LC retention time of 619 s.
The same measure for `N#CC1=C(N)Oc2c(ccc3cccnc23)C1c1ccccc1` (stereo not given): 768 s; for `CCn1c(=O)c2cc(C(=O)NCc3ccc(N4CCC(C)CC4)cc3)nn2c2ccccc21`: 688 s; for `Cc1ccc(-n2nc(CO)c(C(=O)NC3CC3)n2)cc1C`: 890 s.
The compound `CCNC(=O)N1CCCC(c2cccc(C(=O)NCc3ccc(C)o3)c2)C1` (stereo not given) had an RP-LC retention time of 774 s.
`O=C(NC1(c2nc(-c3ccncc3)no2)CCCCC1)C1CCCC1` showed an RP-LC retention time of 861 s.
The result for `Cc1nnc2c(NC(=O)c3ccccn3)cccn12` reads 659 s; that for `CCc1noc(-c2nc(-c3ccc(OC)c(OC)c3)no2)n1`, 976 s; that for `O=C(CC1c2ncccc2C(=O)N1c1ccc(F)cc1)NCc1cc(F)ccc1F` (stereo not given), 737 s.
The result for `CCOc1ccccc1NC(=O)N1CCC2(CC1)NC(=O)c1ccc(F)cc1N2C` reads 817 s.

These data come from the METLIN SMRT retention time set (Domingo-Almenara et al. 2019).
